Data as given in publication PMC9663970, “New triazole-substituted triterpene derivatives exhibiting anti-RSV activity: synthesis, biological evaluation, and molecular modeling” (Beilstein Journal of Organic Chemistry, 2022).
Read-outs that look alike come from different tables or passages of the source.

What was measured:
RSV = assay: Anti-RSV activity in RSV-infected A549 cells (MTT and SRB); format: cell-based, RSV A strain (line A2); settings: for Therapeutic index (TI) = IC50(A549)/EC50(A549 + RSV): IC50 in A549; for Therapeutic index (TI) = IC50(B16F10)/EC50(A549 + RSV): IC50 in B16F10; for Therapeutic index (TI) = IC50(HEP2)/EC50(A549 + RSV): IC50 in HEP2; for Therapeutic index (TI) = IC50(VERO)/EC50(A549 + RSV): IC50 in VERO
VERO cells = assay: cells; format: cell-based; settings: for IC50: Chlorocebus sabaeus, 96 h, read-out: IC50 ± SD, concentration toxic to 50% of non-infected VERO cells
HEP2 cells = assay: cells; format: cell-based; settings: for IC50: Homo sapiens, read-out: IC50 ± SD, concentration toxic to 50% of non-infected HEP2 cells
B16F10 cells = assay: cells; format: cell-based; settings: for IC50: Mus musculus, read-out: IC50 ± SD, concentration toxic to 50% of non-infected B16F10 cells
A549 cells = assay: cells; format: cell-based; settings: for IC50: Homo sapiens, read-out: IC50 ± SD, concentration toxic to 50% of non-infected A549 cells
RSV protein F gene = format: cell-based; settings: 12.5 µM, RSV-infected A549 cells, 96 h, compared to control
HIV protease = test system: HIV protease; design: method as in PMID 10071849; settings: read-out: IC50 HIV protease inhibition; cited from earlier work
SARS-CoV [1] = settings: in vitro in Vero cells; read-out: IC50 against SARS-CoV; cited from earlier work
SARS-CoV [2] = settings: cited from earlier work
[3] = human respiratory syncytial virus, A549, A549+RSV, treated 4 hours after viral infection, 96 h, read-out: EC50 ± SD, concentration that inhibits RSV replication by 50%
[4] = MTT test, non-infected VERO cells
[5] = HEp-2, MTT test, 96 h, non-infected HEP2 cells
[6] = B16-F10, MTT test, 96 h, non-infected B16F10 cells
[7] = MTT test, 96 h, non-infected A549 cells
[8] = human respiratory syncytial virus, A549, read-out: EC50 ± SD, concentration that inhibits RSV replication by 50%, A549+RSV, treated 4 hours after viral infection, 96 h

SMILES | EC50 (RSV; [3]) [µM] | Therapeutic index (TI) = IC50(A549)/EC50(A549 + RSV) (RSV) | Therapeutic index (TI) = IC50(B16F10)/EC50(A549 + RSV) (RSV) | Therapeutic index (TI) = IC50(HEP2)/EC50(A549 + RSV) (RSV) | Therapeutic index (TI) = IC50(VERO)/EC50(A549 + RSV) (RSV) | IC50 (VERO cells; Vero) [µM] | IC50 (HEP2 cells; HEp-2, 96 h) [µM] | IC50 (B16F10 cells; B16-F10, 96 h) [µM] | IC50 (A549 cells; A549, 96 h) [µM] | EC50 (RSV; [8]) [µM] | also measured
NC(=O)c1ncn([C@@H]2O[C@H](CO)[C@@H](O)[C@H]2O)n1 [RBV, ribavirin, reference compound] | 4.9 ± 1.4 | – | – | – | – | – | – | – | – | – | –
C#CCOC(=O)[C@]12CC[C@@H](C)[C@H](C)[C@H]1C1=CC[C@@H]3[C@@]4(C)CC[C@H](OC(C)=O)C(C)(C)[C@@H]4CC[C@@]3(C)[C@]1(C)CC2 [compound 6] | 36.2 ± 0.9 | 1.9 | 0.8 | 0.6 | 0.7 | – | – | – | – | – | IC50 (VERO cells; [4]): 26.1 ± 0.6 µM; IC50 (HEP2 cells; [5]): 20.3 ± 0.4 µM; IC50 (B16F10 cells; [6]): 29 ± 1.1 µM; IC50 (A549 cells; [7]): 67.2 ± 0.5 µM
C=C(C)[C@@H]1CC[C@]2(C(=O)OCc3cn(-c4cccc([N+](=O)[O-])c4)nn3)CC[C@]3(C)[C@H](CC[C@@H]4[C@@]5(C)CC[C@H](OC(C)=O)C(C)(C)[C@@H]5CC[C@]43C)[C@@H]12 [compound 7] | 0.314 | 142.3 | 62.7 | 79.3 | 63.0 | 18.9 ± 1.4 | 23.8 ± 2 | 18.8 ± 0.7 | 42.7 ± 0.6 | – | EC50 (RSV; A549+RSV, treated 4 hours after viral infection, 96 h, read-out: EC50 ± SD, concentration that inhibits RSV replication by 50%): 0.3 ± 0.1 µM
CC(=O)OC1CCC2(C)C(CCC3(C)C2CC=C2C4C(C)C(C)CCC4(C(=O)OCc4cn(-c5cccc([N+](=O)[O-])c5)nn4)CCC23C)C1(C)C (stereo not drawn) [compound 8] | – | – | 196.0 | 398.0 | 432.0 | 21.6 ± 0.9 | 19.9 ± 1.2 | 9.8 ± 0.6 | 59.2 ± 0.9 | 0.053 | Cytotoxicity (in words) (VERO cells; non-infected VERO cells): low cytotoxicity; Cytotoxicity (in words) (HEP2 cells; non-infected HEP2 cells): low cytotoxicity; Cytotoxicity (in words) (B16F10 cells; non-infected B16F10 cells): low cytotoxicity; Cytotoxicity (in words) (A549 cells; non-infected A549 cells): low cytotoxicity; Reduction of RSV protein F gene expression (RSV protein F gene): approximately 65%
C[C@H]1[C@H](C)CC[C@]2(C(=O)O)CC[C@]3(C)C(=CC[C@@H]4[C@@]5(C)CC[C@H](O)C(C)(C)[C@@H]5CC[C@]43C)[C@H]12 [compound 2, ursolic acid, reference compound] | – | 1.5 | 0.9 | 1.6 | 0.8 | 12.9 ± 0.8 | 26.9 ± 0.4 | 16.2 ± 0.8 | 26.7 ± 0.9 | 17.3 ± 0.9 | IC50 (HIV protease): 9 µM
CC(=O)OC1CCC2(C)C(CCC3(C)C2CC=C2C4C(C)C(C)CCC4(C(=O)O)CCC23C)C1(C)C (stereo not drawn) [compound 4] | – | 9.3 | 0.9 | 1.2 | 0.9 | – | – | – | – | 14.3 | IC50 (VERO cells; [4]): 12.6 ± 1.2 µM; IC50 (HEP2 cells; [5]): 17.2 ± 0.9 µM; IC50 (B16F10 cells; [6]): 12.4 ± 0.8 µM; IC50 (A549 cells; [7]): 133 ± 1.1 µM; EC50 (RSV; read-out: EC50 ± SD, concentration that inhibits RSV replication by 50%, A549+RSV, treated 4 hours after viral infection, 96 h): 14.3 ± 0.6 µM
CC1(C)[C@@H](O[C@H]2O[C@H](C(=O)O)[C@@H](O)[C@H](O)[C@H]2O[C@@H]2O[C@H](C(=O)O)[C@@H](O)[C@H](O)[C@H]2O)CC[C@]2(C)[C@H]3C(=O)C=C4[C@@H]5C[C@@](C)(C(=O)O)CC[C@]5(C)CC[C@@]4(C)[C@]3(C)CC[C@@H]12 [glycyrrhizic acid] | – | – | – | – | – | – | – | – | – | – | IC50 (SARS-CoV [1]): 365 µM
C=C(C)[C@@H]1CC[C@]2(C(=O)O)CC[C@]3(C)[C@H](CC[C@@H]4[C@@]5(C)CC[C@H](O)C(C)(C)[C@@H]5CC[C@]43C)[C@@H]12 [compound 1, betulinic acid, reference compound] | – | 3.4 | 4.3 | 5.3 | 2.7 | 14.2 ± 0.2 | 28 ± 0.3 | 22.7 ± 0.8 | 17.8 ± 0.6 | 5.3 ± 0.7 | IC50 (HIV protease): 8 µM; SI anti-SARS-CoV activity (SARS-CoV [2]): > 10; EC50 (SARS-CoV [2]; read-out: EC50 anti-SARS-CoV activity): 10 µM
C#CCOC(=O)[C@]12CC[C@@H](C(=C)C)[C@@H]1[C@H]1CC[C@@H]3[C@@]4(C)CC[C@H](OC(C)=O)C(C)(C)[C@@H]4CC[C@@]3(C)[C@]1(C)CC2 [compound 5] | 0.6 ± 0.8 | 148.0 | 42.7 | 30.7 | 24.2 | 14.5 ± 0.2 | 18.4 ± 0.6 | 25.6 ± 0.5 | 88.8 ± 1 | – | –
C=C(C)[C@@H]1CC[C@]2(C(=O)O)CC[C@]3(C)[C@H](CC[C@@H]4[C@@]5(C)CC[C@H](OC(C)=O)C(C)(C)[C@@H]5CC[C@]43C)[C@@H]12 [compound 3] | – | 1.2 | 0.2 | 0.3 | 0.3 | 13.4 ± 2.1 | 11.5 ± 1.5 | 10.2 ± 1.1 | 53 ± 0.9 | 44.4 ± 0.5 | –
